One test has as its system NPY and AgRP mRNA. The test is described as follows: Third-ventricle infusion of STO-609 in living mice: hypothalamic NPY and AgRP mRNA quantified by RT-PCR. The test is classed as in vivo. As to conditions: 20 uM STO-609 by osmotic mini-pump, 0.5 ul/hr for 7 days, into third ventricle; versus NaOH vehicle; FIG. 1. The method, then:
(§1) To test the effect of STO-609 on feeding behavior, we stereotaxically implanted cannula into the third ventricle of living mice and attached the cannula to osmotic min-pumps that distribute fluids at a rate of 0.5 ul/hr for 7 days. Half of the pumps contained 20 uM STO-609 whereas the other half contained the NaOH vehicle. We monitored body weight together with food and water intake daily for 7 days. Then the mice were sacrificed, hypothalami were removed, RNA extracted and the mRNAs encoding NPY and AgRP were quantified by RT-PCR. […] In addition, STO-609 decreased the total amount of food consumed over the 7 day period by 60% (FIG. 2, left panel) but had no effect on water consumption. In addition, whereas the WT mice gained body weight during the 7 day period (about 4% relative to the starting weight) the STO-609 treated mice lost weight (about 7% relative to the starting weight) (FIG. 2, right panel).

Test [1] deals with feeding behavior of living mice. The experiment in a line: Third-ventricle infusion of STO-609 in living mice: food intake, water intake and body weight over 7 days. The test is classed as in vivo. Conditions: 20 uM STO-609, 0.5 ul/hr for 7 days. The method, then: as §1

For the compound `O=C(O)c1ccc2c3c1cccc3c(=O)n1c3ccccc3nc21` [STO-609], in the test with NPY and AgRP mRNA, the “AgRP mRNA in hypothalamic RNA” value was “highly statistically significant decreases” and the “NPY mRNA in hypothalamic RNA” value is “highly statistically significant decreases”. For the same compound, the “effect on water consumption” value in test [1] is “no effect”. Also, the “body weight lost relative to the starting weight” value in test [1] (7 day period, FIG. 2, right panel) was “about 7%”. Moreover, the “decrease of total amount of food consumed over the 7 day period” value in test [1] (FIG. 2, left panel) came to 60%.
